Laboratory results from the supplement of paper PMC11061612.

Key:
[1] = system: HeLa (Cervical Carcinoma); test: combination Emax (second highest fraction inhibited in the dose matrix, 72 h); higher = more inhibition; extreme values may be limits of the assay
Outline: (§1)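 Cell lines grown in DMEM/F12 or RPMI with 10% FBS were plated in 1536-well plates and held 24 hours at 37°C, 5% CO2 before 72 hours of exposure to two-drug dose matrices, with DMSO typically at 0.2%. CellTiter-Glo 2.0 luminescence gave viability, which was converted to inhibition. Vehicle wells were set to 0 and blank wells to 1. Combination Emax is the second-highest inhibition in the matrix, and Bliss excess is the observed combination effect minus the expected EA + EB − EA·EB, where EA and EB are the single-agent effects.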

[2] = system: L-428 (Hodgkin's Lymphoma); test: as above
Outline: as §1

[3] = system: NUGC-4 (Gastric Carcinoma); test: as above
Outline: as §1

CAL-72 (Osteosarcoma) = test: as above
Outline: as §1

[4] = system: SW1573 (Lung Adenocarcinoma); test: as above
Outline: as §1

[5] = system: LNZTA3WT4 (Low Grade Glioma); test: as above
Outline: as §1

[6] = system: LCLC-97TM1 (Non-Small Cell Lung Carcinoma); test: as above
Outline: as §1

EW-11 (Ewing's Sarcoma) = test: as above
Outline: as §1

NCI-H2052 (Mesothelioma) = test: as above
Outline: as §1

BE2-M17 (Neuroblastoma) = test: as above
Outline: as §1

[7] = system: OE21 (Esophageal Squamous Cell Carcinoma); test: as above
Outline: as §1

[8] = system: SNU-16 (Gastric Carcinoma); test: as above
Outline: as §1

[9] = system: HuCCT1 (Biliary Tract Carcinoma); test: as above
Outline: as §1

[10] = system: FTC-133 (Thyroid Gland Carcinoma); test: as above
Outline: as §1

[11] = system: YAPC (Pancreatic Carcinoma); test: Bliss excess, mean over the matrix (fraction); higher = more synergy
Outline: as §1

[12] = system: LNZTA3WT4 (Low Grade Glioma); test: as above
Outline: as §1

[13] = system: Detroit562 (Head and Neck Carcinoma); test: as above
Outline: as §1

[14] = system: Hs-746T (Gastric Carcinoma); test: as above
Outline: as §1

[15] = system: FTC-133 (Thyroid Gland Carcinoma); test: as above
Outline: as §1
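For Bliss excess, mean over the matrix in this document: after 72 h of two-drug dosing.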

Compound | combination Emax [1] | combination Emax [2] | combination Emax [3] | combination Emax (CAL-72 (Osteosarcoma)) | combination Emax [4] | combination Emax [5] | combination Emax [6] | combination Emax (EW-11 (Ewing's Sarcoma)) | combination Emax (NCI-H2052 (Mesothelioma)) | combination Emax (BE2-M17 (Neuroblastoma)) | combination Emax [7] | combination Emax [8] | combination Emax [9] | combination Emax [10] | Bliss excess [11] | Bliss excess [12] | Bliss excess [13] | Bliss excess [14] | Bliss excess [15]
COc1cccc(OCCCN)c1-c1cc(Nc2cnc(C#N)cn2)n[nH]1 [Prexasertib] + C=CCn1c(=O)c2cnc(Nc3ccc(N4CCN(C)CC4)cc3)nc2n1-c1cccc(C(C)(C)O)n1 [AZD1775] (first compound max 1 µM, partner max 1 µM) | 0.91 | 0.955 | 0.555 | 0.891 | 0.582 | 0.91 | 0.951 | 0.683 | 0.699 | 0.998 | 0.733 | 1 | 0.827 | 0.858 | 0.0441 | 0.133 | 0.0416 | -0.0572 | -0.0182
CS(=O)(=O)CCNCc1ccc(-c2ccc3ncnc(Nc4ccc(OCc5cccc(F)c5)c(Cl)c4)c3c2)o1 [Lapatinib] + NC1(c2ccc(-c3nc4ccn5c(=O)[nH]nc5c4cc3-c3ccccc3)cc2)CCC1 [MK-2206] (first compound max 10 µM, 7x7, partner max 10 µM) | – | – | – | 0.89 | – | 0.911 | – | 0.948 | 0.515 | – | – | 0.964 | 0.893 | – | 0.0208 | -0.0334 | – | – | –
C[C@@H](Oc1cc(-c2cnn(C3CCNCC3)c2)cnc1N)c1c(Cl)ccc(F)c1Cl [Crizotinib] + CC1=C(C(=CC=C1)Cl)NC(=O)C2=CN=C(S2)NC3=CC(=NC(=N3)C)N4CCN(CC4)CCO [Dasatinib] (first compound max 10 µM, 7x7, partner max 2 µM) | – | – | – | 0.79 | – | 0.666 | – | 0.788 | – | – | – | 0.909 | 0.82 | – | 0.0219 | 0.0429 | – | – | –
CCc1c2c(nc3ccc(O)cc13)-c1cc3c(c(=O)n1C2)COC(=O)[C@]3(O)CC [SN-38] + O=C(c1cc(Cc2n[nH]c(=O)c3ccccc23)ccc1F)N1CCN(C(=O)C2CC2)CC1 [Olaparib] (first compound max 0.3 µM, 7x7, partner max 10 µM) | 0.397 | 0.94 | – | 0.708 | – | 0.464 | – | 0.742 | – | 0.89 | 0.669 | 0.848 | 0.662 | – | 0.0336 | -0.0114 | – | – | –
Cc1c2c(nn1C)CSCc1cc(n(C)n1)CSc1cc(c3ccccc3c1)OCCCc1c(C(=O)O)n(C)c3c-2c(Cl)ccc13 [AZD5991] + CS(=O)(=O)CCNCc1ccc(-c2ccc3ncnc(Nc4ccc(OCc5cccc(F)c5)c(Cl)c4)c3c2)o1 [Lapatinib] (first compound max 1 µM, 7x7, partner max 10 µM) | – | – | – | 0.83 | – | 0.447 | – | 0.572 | – | – | – | 0.998 | 0.482 | – | -0.0084 | 0.0355 | – | – | –
C=CCn1c(=O)c2cnc(Nc3ccc(N4CCN(C)CC4)cc3)nc2n1-c1cccc(C(C)(C)O)n1 [AZD1775] + Nc1ccn([C@@H]2O[C@H](CO)[C@@H](O)C2(F)F)c(=O)n1 [Gemcitabine] (first compound max 1 µM, partner max 0.3 µM) | – | – | – | 0.716 | – | 0.886 | – | 0.758 | – | – | – | 0.998 | 0.805 | – | 0.109 | 0.0746 | – | – | –
C=CCn1c(=O)c2cnc(Nc3ccc(N4CCN(C)CC4)cc3)nc2n1-c1cccc(C(C)(C)O)n1 [AZD1775] + CCc1c2c(nc3ccc(O)cc13)-c1cc3c(c(=O)n1C2)COC(=O)[C@]3(O)CC [SN-38] (first compound max 1 µM, partner max 0.3 µM) | – | – | – | 0.838 | – | 0.802 | – | 0.723 | – | – | – | 0.989 | 0.809 | – | -0.0599 | -0.0414 | – | – | –
O=C(c1cc(Cc2n[nH]c(=O)c3ccccc23)ccc1F)N1CCN(C(=O)C2CC2)CC1 [Olaparib] + COc1nnc2ccc(N3CCC(c4ccc(OCCN5CCN(C)C(=O)[C@H]5C)cc4)CC3)nn12 [AZD5153] (first compound max 10 µM, 7x7, partner max 1 µM) | – | – | – | 0.475 | – | 0.357 | – | 0.712 | – | – | – | 0.769 | 0.456 | – | -0.0239 | -0.0516 | – | – | –
Cc1nc(-c2cn3c(n2)-c2ccc(-c4cnn(C(C)(C)C(N)=O)c4)cc2OCC3)n(C(C)C)n1 [Taselisib] + O=C(Nc1ccc2[nH]nc(-c3ccncc3)c2c1)[C@@H]1CCN(CC(=O)N2CCN(c3ccc(-c4ncccn4)cc3)CC2)C1 [SCH772984] (first compound max 10 µM, 7x7, partner max 5 µM) | – | – | – | 0.438 | – | 0.66 | – | 0.746 | – | – | – | 0.82 | 0.839 | – | 0.134 | -0.0617 | – | – | –
O=C(c1cc(Cc2n[nH]c(=O)c3ccccc23)ccc1F)N1CCN(C(=O)C2CC2)CC1 [Olaparib] + Cc1c2c(nn1C)CSCc1cc(n(C)n1)CSc1cc(c3ccccc3c1)OCCCc1c(C(=O)O)n(C)c3c-2c(Cl)ccc13 [AZD5991] (first compound max 10 µM, 7x7, partner max 1 µM) | – | – | – | 0.191 | – | 0.123 | – | 0.831 | – | – | – | 0.994 | 0.15 | – | -0.0367 | -0.0468 | – | – | –
CS(=O)(=O)CCNCc1ccc(-c2ccc3ncnc(Nc4ccc(OCc5cccc(F)c5)c(Cl)c4)c3c2)o1 [Lapatinib] + Cn1cnc2c(F)c(Nc3ccc(Br)cc3Cl)c(C(=O)NOCCO)cc21 [Selumetinib] (first compound max 10 µM, 7x7, partner max 10 µM) | – | – | – | 0.446 | – | 0.369 | – | 0.195 | – | – | – | 0.557 | 0.801 | – | 0.0037 | -0.0268 | – | – | –
CC1(C)CCC(CN2CCN(c3ccc(C(=O)NS(=O)(=O)c4ccc(NCC5CCOCC5)c([N+](=O)[O-])c4)c(Oc4cnc5[nH]ccc5c4)c3)CC2)=C(c2ccc(Cl)cc2)C1 [Venetoclax] + CS(=O)(=O)CCNCc1ccc(-c2ccc3ncnc(Nc4ccc(OCc5cccc(F)c5)c(Cl)c4)c3c2)o1 [Lapatinib] (first compound max 1 µM, 7x7, partner max 10 µM) | – | – | – | 0.646 | – | 0.208 | – | 0.263 | – | – | – | 0.399 | 0.397 | – | -0.012 | -0.0178 | – | – | –
Cc1c2c(nn1C)CSCc1cc(n(C)n1)CSc1cc(c3ccccc3c1)OCCCc1c(C(=O)O)n(C)c3c-2c(Cl)ccc13 [AZD5991] + Nc1ccn([C@@H]2O[C@H](CO)[C@@H](O)C2(F)F)c(=O)n1 [Gemcitabine] (first compound max 1 µM, 7x7, partner max 0.3 µM) | – | – | – | 0.613 | – | 0.633 | – | 0.868 | – | – | – | 1 | 0.506 | – | -0.0165 | 0.0625 | – | – | –
O=C(c1cc(Cc2n[nH]c(=O)c3ccccc23)ccc1F)N1CCN(C(=O)C2CC2)CC1 [Olaparib] + CN(CC[C@H](CSC1=CC=CC=C1)NC2=C(C=C(C=C2)S(=O)(=O)NC(=O)C3=CC=C(C=C3)N4CCC(CC4)[C@H](C5=CC=CC=C5C6=CC=C(C=C6)Cl)O)S(=O)(=O)C(F)(F)F)CCO [AZD4320] (first compound max 10 µM, 7x7, partner max 1 µM) | – | – | – | 0.183 | – | 0.168 | – | 0.923 | – | – | – | 0.691 | 0.193 | – | -0.0169 | -0.0332 | – | – | –
C[C@@H]1COCCN1c1cc(C2([S@](C)(=N)=O)CC2)nc(-c2ccnc3[nH]ccc23)n1 [AZD6738] + C1CC(C1)(C(=O)[O-])C(=O)[O-].N.N.[Pt+2] [Carboplatin] (first compound max 10 µM, 7x7, partner max 10 µM) | – | – | – | 0.718 | – | 0.806 | – | 0.584 | – | – | – | – | 0.683 | – | -0.0227 | -0.0459 | – | – | –
C[C@@H]1COCCN1c1cc(C2([S@](C)(=N)=O)CC2)nc(-c2ccnc3[nH]ccc23)n1 [AZD6738] + Nc1ccn([C@@H]2O[C@H](CO)[C@@H](O)C2(F)F)c(=O)n1 [Gemcitabine] (first compound max 10 µM, 7x7, partner max 0.3 µM) | – | – | – | 0.897 | – | 0.954 | – | 0.833 | – | – | – | 1 | 0.779 | – | 0.0296 | 0.186 | – | – | –
C[C@@H](Oc1cc(-c2cnn(C3CCNCC3)c2)cnc1N)c1c(Cl)ccc(F)c1Cl [Crizotinib] + Cn1cnc2c(F)c(Nc3ccc(Br)cc3Cl)c(C(=O)NOCCO)cc21 [Selumetinib] (first compound max 10 µM, 7x7, partner max 10 µM) | – | – | – | 0.59 | – | 0.456 | – | 0.81 | – | – | – | 0.989 | 0.725 | – | -0.0319 | -0.0285 | – | – | –
O=C(c1cc(Cc2n[nH]c(=O)c3ccccc23)ccc1F)N1CCN(C(=O)C2CC2)CC1 [Olaparib] + CC1(C)CCC(CN2CCN(c3ccc(C(=O)NS(=O)(=O)c4ccc(NCC5CCOCC5)c([N+](=O)[O-])c4)c(Oc4cnc5[nH]ccc5c4)c3)CC2)=C(c2ccc(Cl)cc2)C1 [Venetoclax] (first compound max 10 µM, 7x7, partner max 1 µM) | – | – | – | 0.191 | – | 0.0965 | – | 0.698 | – | – | – | 0.607 | 0.0844 | – | -0.0282 | -0.0739 | – | – | –
C[C@@H](Nc1cc(F)cc(F)c1)c1cc(C(=O)N(C)C)cc2c(=O)cc(N3CCOCC3)oc12 [AZD8186] + CC(=O)c1c(C)c2cnc(Nc3ccc(N4CCNCC4)cn3)nc2n(C2CCCC2)c1=O [Palbociclib] (first compound max 10 µM, 7x7, partner max 10 µM) | – | – | – | 0.398 | – | 0.478 | – | 0.428 | – | – | – | 0.639 | 0.479 | – | -0.0101 | 0.111 | – | – | –
